The text below walks through data of ChEMBL document CHEMBL1136501 (Bioorg Med Chem Lett, 2003).

The target of assay [1] is T1, Sodium-dependent serotonin transporter (Homo sapiens, UniProt P31645). The assay is described as follows: Binding affinity at serotonin transporter, using [3H]citalopram as radioligand at a concentration of 0.1 uM.
Target sequence in this assay (P31645 whole entry, looked up): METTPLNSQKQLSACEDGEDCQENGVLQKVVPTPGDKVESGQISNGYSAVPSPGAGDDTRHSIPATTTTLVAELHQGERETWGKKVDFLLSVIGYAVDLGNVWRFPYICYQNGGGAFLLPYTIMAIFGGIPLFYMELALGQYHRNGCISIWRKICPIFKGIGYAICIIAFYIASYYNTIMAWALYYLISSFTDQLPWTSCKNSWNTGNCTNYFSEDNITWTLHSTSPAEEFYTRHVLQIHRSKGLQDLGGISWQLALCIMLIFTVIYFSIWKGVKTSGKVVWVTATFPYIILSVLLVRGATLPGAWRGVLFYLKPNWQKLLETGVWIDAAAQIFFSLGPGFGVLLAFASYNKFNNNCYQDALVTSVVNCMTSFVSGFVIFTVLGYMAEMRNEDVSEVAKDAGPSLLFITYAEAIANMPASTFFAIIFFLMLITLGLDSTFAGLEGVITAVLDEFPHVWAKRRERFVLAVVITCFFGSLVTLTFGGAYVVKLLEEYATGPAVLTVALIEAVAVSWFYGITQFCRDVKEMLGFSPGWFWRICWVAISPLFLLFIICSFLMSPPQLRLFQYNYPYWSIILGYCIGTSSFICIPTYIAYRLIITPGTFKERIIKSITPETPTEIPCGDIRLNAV
Assay [2] concerns the target T2, Sodium-dependent noradrenaline transporter (Homo sapiens, UniProt P23975). As to the kind of experiment: Inhibition of [3H]nisoxetine binding to norepinephrine transporter. Conditions: concentration not given here.
Assay [3] concerns the target T2, Sodium-dependent noradrenaline transporter.
Description: Inhibition of [3H]nisoxetine binding to norepinephrine (NE) transporter
The target in assay [4] is T1, Sodium-dependent serotonin transporter.
Target sequence in this assay (P31645 whole entry): as the sequence (P31645 whole entry, looked up) above
Description: Binding affinity to serotonin transporter, using [3H]citalopram as radioligand
The species named for assay [5] is Rattus norvegicus.
Description: Inhibition of serotonin uptake into rat synaptosomes
The species entered for assay [6] is Rattus norvegicus. This is another data set of the same source.
Description: Inhibition of norepinephrine uptake into rat synaptosomes
The species named for assay [7] is Rattus norvegicus. The source holds these as a separate data set.
Description: Inhibition of dopamine uptake into rat synaptosomes

T2 sequence (P23975 whole entry): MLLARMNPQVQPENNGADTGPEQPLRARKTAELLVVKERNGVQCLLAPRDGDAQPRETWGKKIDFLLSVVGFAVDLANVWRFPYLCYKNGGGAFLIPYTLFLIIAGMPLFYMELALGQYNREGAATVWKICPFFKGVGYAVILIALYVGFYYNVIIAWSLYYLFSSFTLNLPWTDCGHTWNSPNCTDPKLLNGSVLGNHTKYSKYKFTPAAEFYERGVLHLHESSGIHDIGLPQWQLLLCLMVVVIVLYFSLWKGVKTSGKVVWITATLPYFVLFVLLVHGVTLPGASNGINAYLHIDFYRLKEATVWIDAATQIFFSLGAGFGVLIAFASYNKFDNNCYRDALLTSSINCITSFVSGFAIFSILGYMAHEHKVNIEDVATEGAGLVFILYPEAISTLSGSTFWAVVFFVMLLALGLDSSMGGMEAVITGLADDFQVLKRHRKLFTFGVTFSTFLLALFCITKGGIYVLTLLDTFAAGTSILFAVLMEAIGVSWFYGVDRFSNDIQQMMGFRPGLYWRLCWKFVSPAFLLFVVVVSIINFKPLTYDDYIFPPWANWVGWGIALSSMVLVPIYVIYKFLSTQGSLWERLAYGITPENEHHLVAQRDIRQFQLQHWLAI

Usually inhibition stands for the relative decrease from the control value, in per cent. A higher inhibition goes with a strong effect. Take `CNCCCCCOc1cccc2ccccc12`: the inhibition in assay [1] was found to be 35.5%; in assay [2], 23%.
The like results for `CNCCCOc1ccc2ccccc2c1` were, in that order, 23% and 39%.
What is called Ki is the dissociation constant of the complex between target and ligand, obtained from inhibition or displacement. On to `CNCCC(Oc1cccc2ccccc12)c1ccco1` (centres undefined), for which the inhibitory constant (Ki) worked out at 0.02 µM in assay [3] and 0.0007 µM in assay [4].
`CNCCC(Oc1cccc2ccccc12)c1ccc(Cl)cc1` (centres undefined): the inhibition constant Ki in assay [3] was 0.078 µM; in assay [4] it was 0.0038 µM.
The matching figures for `CNCCC(Oc1cccc2ccccc12)c1ccccc1` (centres undefined): 0.02 µM and 0.0024 µM.
The like results for `CNCCC(Oc1cccc2ccccc12)c1ccc(Br)cc1` (centres undefined) were, in that order, 0.16 µM and 0.0041 µM.
Regarding `CNCCC(Oc1cccc2ccccc12)c1ccc(C(F)(F)F)cc1` (centres undefined), the Ki in assay [4] worked out at 0.0145 µM. Also, in assay [2], the inhibition is 55%.
Take `CNCCC(Oc1cccc2ccccc12)c1nccs1` (centres undefined): the values for the Ki in assay [3] and in assay [4] were 0.055 µM and 0.0064 µM, respectively.
`CNCCCOc1cccc2ccccc12` registered an inhibitory constant (Ki) in assay [4] of 0.075 µM. The same compound displayed an inhibition in assay [2] of 25%.
`CNCCC(Oc1cccc2ccccc12)c1ccc(C)cc1` (centres undefined): the inhibition constant Ki in assay [3] is 0.036 µM; in assay [4], 0.0021 µM.
On to `CNCCC(Oc1cccc2ccccc12)c1ccccc1OC` (centres undefined), for which the Ki in assay [4] amounted to 0.0023 µM. For the same compound, the inhibition in assay [2] came to 56%.
The matching figures for `CNCCC(Oc1cccc2ccccc12)c1ccccc1C(F)(F)F` (centres undefined): 0.01 µM and 38%.
Take `CNCCC(Oc1cccc2ccccc12)c1cccc(C)c1` (centres undefined): the inhibitory constant (Ki) in assay [3] is 0.04 µM; in assay [4], 0.004 µM.
The matching figures for `CNCCC(Oc1cccc2ccccc12)c1cccc(OC)c1` (centres undefined): 0.081 µM and 0.0022 µM.
The matching figures for `CNCCC(Oc1cccc2ccccc12)c1ccccc1C` (centres undefined): 0.11 µM and 0.002 µM.
On to `CNCC[C@@H](Oc1ccccc1C)c1ccccc1` [ATOMOXETINE], for which the inhibition constant Ki in the assay filed under Rattus norvegicus [5] came out at 1.5 µM; in the assay listed under Rattus norvegicus [6], 0.004 µM; in the assay filed under Rattus norvegicus [7] it was 2 µM.
Consider `CNCCCCOc1ccc2ccccc2c1`, for which the inhibition was found to be 32% in assay [1] and 17% in assay [2].
The matching figures for `CNCCOc1cccc2ccccc12`: 2% and 17%.
`CNCCC(Oc1cccc2ccccc12)c1cccc(Br)c1` (centres undefined): the Ki in assay [3] was found to be 0.067 µM; in assay [4], 0.0076 µM.
The like results for `CNCCC(Oc1cccc2ccccc12)c1ccc(OC)cc1` (centres undefined) were, in that order, 0.074 µM and 0.0035 µM.
The like results for `CNCCC(Oc1cccc2ccccc12)c1ccc(F)cc1` (centres undefined) were, in that order, 0.042 µM and 0.00095 µM.
The matching figures for `CNCCC(Oc1cccc2ccccc12)c1cccc(C(F)(F)F)c1` (centres undefined): 0.07 µM and 0.019 µM.
On to `CNCCC(Oc1cccc2ccccc12)c1ccsc1` (centres undefined), for which the inhibition constant Ki in assay [3] came to 0.021 µM; in assay [4], 0.0011 µM.
`CNCCCCOc1cccc2ccccc12`: the inhibition constant (Ki) in assay [4] is 0.031 µM. Moreover, the inhibition in assay [2] came out at 25.5%.
